Earlier results on seven molecules are cited in patent publication US20240261236A1, “METHODS OF USING NMDA RECEPTOR ANTAGONISTS” (Seelos Therapeutics, Inc., priority 2021, published 2024).

pKi: −log10 of the molar value.

For data set [1] the following is noted: 56 mg or 84 mg dose; Spravato label; cited from earlier work.
For data set [2] the following is noted: 56 mg or 84 mg doses; Spravato label; cited from earlier work.
For a further data set, the target named is NMDA receptor. The conditions noted are these: binds to the NMDA receptor; Moaddel et al. 2013; cited from earlier work.
The conditions of data set [3]: Leung and Baillie 1986; cited from earlier work.

For the molecule `CN[C@]1(c2ccccc2Cl)CCCCC1=O` [(S)-ketamine, (S)-2-(2-chlorophenyl)-2-(methylamino)cyclohexanone], the “subjects who developed sedation” value in data set [1] is 48-61%. For the same molecule, the “patients who developed dissociative changes on the CADSS assessment” value in data set [2] is given as 61%-69%.
One may read the pKi as the Ki on a negative log10 scale, so that one unit is a factor of ten. As to `N[C@@]1(c2ccccc2Cl)CCCCC1=O` [(R)-norketamine], on NMDA receptor, the pKi is ~4.58.
`NC1(c2ccccc2Cl)CCCCC1=O` (centres unmarked) [norketamine]: in data set [3], the anesthetic activity entry is reported as “anesthetic activity”.
Take `N[C@@]1(c2ccccc2Cl)CCC[C@@H](O)C1=O` [(2R,6R)-hydroxynorketamine]: the pKi on NMDA receptor is < 4.00.
Regarding `NC1(c2ccccc2Cl)CCCC(O)C1=O` (centres unmarked) [6-hydroxynorketamine], the anesthetic activity result in data set [3] was “no anesthetic or locomotor activity”.
Take `N[C@]1(c2ccccc2Cl)CCCCC1=O` [(S)-norketamine]: at NMDA receptor, the pKi was ~5.65.
Consider `N[C@]1(c2ccccc2Cl)CCC[C@H](O)C1=O` [(2S,6S)-hydroxynorketamine], for which, on NMDA receptor, the pKi is ~4.67.
